Assay results from patent publication US20240376085A1 (Janssen Pharmaceutica NV, priority 2021, published 2024).
pIC50: −log10 of the molar value.

Legend:
[1] = target: T1, IL-17A : IL-17RA binding (Homo sapiens, UniProt Q16552, K93Q); assay: IL-17A(FLAG-tagged):IL-17RA(His-tagged) binding disruption Eu-HTRF assay, Protocol 1; conditions: FLAG-IL-17A 2.5 nM at 2x final concentration; average if tested more than once
T1 construct: Name: IL-17A-Flag
Method in brief: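 IC50 came from a one-site competition fit of the acceptor/donor (665/620 nm) HTRF ratio. His-tagged IL-17RA, Eu-anti-FLAG and D2-anti-His were added after a 1 h rt compound preincubation with FLAG-tagged IL-17A dimer in PBS/0.01% Triton X-100, followed by 2 h at rt before reading.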

[2] = test system: IL-17A-induced G-CSF production in human normal keratinocyte (NHK); assay: NHK assay: IL-17A-induced G-CSF production in normal human keratinocytes; assay type: cell-based; conditions: Homo sapiens, Keratinocyte, 24 h, IL-17A 5 ng/mL, average if tested more than once
Method in brief: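 IC50 derives from G-CSF in supernatants, quantified by HTRF from a standard curve, with CellTiter-Glo viability compared to DMSO control. Before a 24 h, 37°C culture of normal human keratinocytes at 3000–4000 cells/well, compound dilutions were preincubated 1 h at rt with human IL-17A (5 ng/mL final), with 0.2% DMSO and 5% FBS.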

T1 sequence (Q16552 with tags, fused parts or gaps K93Q): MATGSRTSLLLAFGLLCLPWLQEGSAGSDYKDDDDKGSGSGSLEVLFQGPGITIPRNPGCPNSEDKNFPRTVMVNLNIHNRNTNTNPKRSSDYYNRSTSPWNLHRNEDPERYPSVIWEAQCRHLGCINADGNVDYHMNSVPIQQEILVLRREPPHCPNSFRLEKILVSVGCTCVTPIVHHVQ

Row | pIC50 [1] | SMILES | pIC50 [2]
1 | < 7.00 | CCn1nc(C(=O)N[C@H](c2nc3cc([C@@H](C)NC(=O)CCC(F)(F)F)ccc3[nH]2)C2CCC(F)(F)CC2)cc1C(F)(F)F [Example 92, N—((S)-(4,4-Difluorocyclohexyl)(5-((R)-1-(4,4,4-trifluorobutanamido)ethyl)-1H-benzo[d]imidazol-2-yl)methyl)-1-ethyl-5-(trifluoromethyl)-1H-pyrazole-3-carboxamide] | < 7.00
2 | < 7.00 | C[C@@H](NC(=O)CCC(F)(F)F)c1ccc2[nH]c([C@@H](NC(=O)c3cc(O)n(CCC(F)(F)F)n3)C3CCC(F)(F)CC3)nc2c1 [Example 93, N—((S)-(4,4-Difluorocyclohexyl)(5-((R)-1-(4,4,4-trifluorobutanamido)ethyl)-1H-benzo[d]imidazol-2-yl)methyl)-5-hydroxy-1-(3,3,3-trifluoropropyl)-1H-pyrazole-3-carboxamide] | < 7.00
3 | < 7.00 | C[C@@H](NC(=O)CCC(F)(F)F)c1ccc2[nH]c([C@@H](NC(=O)C3(C(F)(F)F)CC3)C3CCC(F)(F)CC3)nc2c1 [Example 97, N—((S)-(4,4-Difluorocyclohexyl)(5-((R)-1-(4,4,4-trifluorobutanamido)ethyl)-1H-benzo[d]imidazol-2-yl)methyl)-1-(trifluoromethyl)cyclopropane-1-carboxamide] | < 7.00
4 | < 7.00 | C[C@@H](NC(=O)CCC(F)(F)F)c1ccc2[nH]c([C@@H](NC(=O)[C@H]3C[C@@H]3F)C3CCC(F)(F)CC3)nc2c1 [Example 98, (1R,2S)—N—((S)-(4,4-Difluorocyclohexyl)(5-((R)-1-(4,4,4-trifluorobutanamido)ethyl)-1H-benzo[d]imidazol-2-yl)methyl)-2-fluorocyclopropane-1-carboxamide] | < 7.00
5 | < 7.00 | C[C@@H](NC(=O)CCC(F)(F)F)c1ccc2[nH]c([C@@H](NC(=O)[C@H]3C[C@H]3F)C3CCC(F)(F)CC3)nc2c1 [Example 99, (1R,2R)—N—((S)-(4,4-Difluorocyclohexyl)(5-((R)-1-(4,4,4-trifluorobutanamido)ethyl)-1H-benzo[d]imidazol-2-yl)methyl)-2-fluorocyclopropane-1-carboxamide] | < 7.00
6 | < 7.00 | C[C@@H](NC(=O)CCC(F)(F)F)c1ccc2[nH]c([C@@H](NC(=O)[C@@H]3C[C@H]3F)C3CCC(F)(F)CC3)nc2c1 [Example 100, (1S,2R)—N—((S)-(4,4-Difluorocyclohexyl)(5-((R)-1-(4,4,4-trifluorobutanamido)ethyl)-1H-benzo[d]imidazol-2-yl)methyl)-2-fluorocyclopropane-1-carboxamide] | < 7.00
7 | < 7.00 | C[C@@H](NC(=O)CCC(F)(F)F)c1ccc2[nH]c([C@@H](NC(=O)[C@@H]3C[C@@H]3F)C3CCC(F)(F)CC3)nc2c1 [Example 101, (1S,2S)—N—((S)-(4,4-Difluorocyclohexyl)(5-((R)-1-(4,4,4-trifluorobutanamido)ethyl)-1H-benzo[d]imidazol-2-yl)methyl)-2-fluorocyclopropane-1-carboxamide] | < 7.00
8 | < 7.00 | CC(C)C(=O)N[C@H](c1nc2cc([C@@H](C)NC(=O)CCC(F)(F)F)ccc2[nH]1)C1CCC(F)(F)CC1 [Example 115, N—((R)-1-(2-((S)-(4,4-Difluorocyclohexyl)(isobutyramido)methyl)-1H-benzo[d]imidazol-5-yl)ethyl)-4,4,4-trifluorobutanamide] | < 7.00
9 | < 7.00 | C[C@@H](NC(=O)CCC(F)(F)F)c1ccc2[nH]c([C@@H](NC(=O)c3ccnn3C)C3CCC(F)(F)CC3)nc2c1 [Example 118, N—((S)-(4,4-Difluorocyclohexyl)(5-((R)-1-(4,4,4-trifluorobutanamido)ethyl)-1H-benzo[d]imidazol-2-yl)methyl)-1-methyl-1H-pyrazole-5-carboxamide] | 7.00 to 7.30

Continued, compound first:

Row | SMILES | pIC50 [1] | pIC50 [2]
10 | C[C@@H](NC(=O)CCC(F)(F)F)c1ccc2[nH]c([C@@H](NC(=O)c3cn(CC4CCC4)nc3C(N)=O)C3CCC(F)(F)CC3)nc2c1 [Example 89, 1-(Cyclobutylmethyl)-N^4—((S)-(4,4-difluorocyclohexyl)(5-((R)-1-(4,4,4-trifluorobutanamido)ethyl)-1H-benzo[d]imidazol-2-yl)methyl)-1H-pyrazole-3,4-dicarboxamide] | < 7.00 | < 7.00
11 | C[C@@H](NC(=O)CCC(F)(F)F)c1ccc2[nH]c([C@@H](NC(=O)c3c(C#N)cnn3CC3CCC3)C3CCC(F)(F)CC3)nc2c1 [Example 90, 4-Cyano-1-(cyclobutylmethyl)-N—((S)-(4,4-difluorocyclohexyl)(5-((R)-1-(4,4,4-trifluorobutanamido)ethyl)-1H-benzo[d]imidazol-2-yl)methyl)-1H-pyrazole-5-carboxamide] | < 7.00 | < 7.00
12 | C[C@@H](NC(=O)CCC(F)(F)F)c1ccc2[nH]c([C@@H](NC(=O)c3nn(CC4CCC4)cc3C#N)C3CCC(F)(F)CC3)nc2c1 [Example 91, 4-Cyano-1-(cyclobutylmethyl)-N—((S)-(4,4-difluorocyclohexyl)(5-((R)-1-(4,4,4-trifluorobutanamido)ethyl)-1H-benzo[d]imidazol-2-yl)methyl)-1H-pyrazole-3-carboxamide] | < 7.00 | < 7.00
13 | C[C@@H](NC(=O)CCC(F)(F)F)c1ccc2[nH]c([C@@H](NC(=O)C3CC3)C3CCC(F)(F)CC3)nc2c1 [Example 94, N—((S)-(4,4-Difluorocyclohexyl)(5-((R)-1-(4,4,4-trifluorobutanamido)ethyl)-1H-benzo[d]imidazol-2-yl)methyl)cyclopropanecarboxamide] | < 7.00 | < 7.00
14 | C[C@@H](NC(=O)CCC(F)(F)F)c1ccc2[nH]c([C@@H](NC(=O)C3(C)CC3)C3CCC(F)(F)CC3)nc2c1 [Example 95, N—((S)-(4,4-Difluorocyclohexyl)(5-((R)-1-(4,4,4-trifluorobutanamido)ethyl)-1H-benzo[d]imidazol-2-yl)methyl)-1-methylcyclopropane-1-carboxamide] | < 7.00 | < 7.00
15 | C[C@@H](NC(=O)CCC(F)(F)F)c1ccc2[nH]c([C@@H](NC(=O)C3(F)CC3)C3CCC(F)(F)CC3)nc2c1 [Example 96, N—((S)-(4,4-Difluorocyclohexyl)(5-((R)-1-(4,4,4-trifluorobutanamido)ethyl)-1H-benzo[d]imidazol-2-yl)methyl)-1-fluorocyclopropane-1-carboxamide] | < 7.00 | < 7.00
16 | C[C@@H](NC(=O)CCC(F)(F)F)c1ccc2[nH]c([C@@H](NC(=O)[C@@H]3C[C@@H]3C#N)C3CCC(F)(F)CC3)nc2c1 [Example 102, cis-(1,2)-2-Cyano-N—((S)-(4,4-difluorocyclohexyl)(5-((R)-1-(4,4,4-trifluorobutanamido)ethyl)-1H-benzo[d]imidazol-2-yl)methyl)cyclopropane-1-carboxamide] | < 7.00 | < 7.00
17 | C[C@@H](NC(=O)CCC(F)(F)F)c1ccc2[nH]c([C@@H](NC(=O)C3CC34CC4)C3CCC(F)(F)CC3)nc2c1 (stereo partly drawn) [Example 110, N—((S)-(4,4-Difluorocyclohexyl)(5-((R)-1-(4,4,4-trifluorobutanamido)ethyl)-1H-benzo[d]imidazol-2-yl)methyl)spiro[2.2]pentane-1-carboxamide] | < 7.00 | < 7.00
18 | C[C@@H](NC(=O)CCC(F)(F)F)c1ccc2[nH]c([C@@H](NC(=O)C3CC34CCC4)C3CCC(F)(F)CC3)nc2c1 (stereo partly drawn) [Example 111, N—((S)-(4,4-Difluorocyclohexyl)(5-((R)-1-(4,4,4-trifluorobutanamido)ethyl)-1H-benzo[d]imidazol-2-yl)methyl)spiro[2.3]hexane-1-carboxamide] | < 7.00 | < 7.00
19 | C[C@@H](NC(=O)CCC(F)(F)F)c1ccc2[nH]c([C@@H](NC(=O)C34CC(C3)C4)C3CCC(F)(F)CC3)nc2c1 [Example 112, N—((S)-(4,4-Difluorocyclohexyl)(5-((R)-1-(4,4,4-trifluorobutanamido)ethyl)-1H-benzo[d]imidazol-2-yl)methyl)bicyclo[1.1.1]pentane-1-carboxamide] | < 7.00 | < 7.00
20 | C[C@@H](NC(=O)CC(C(F)(F)F)C(F)(F)F)c1ccc2[nH]c([C@@H](NC(=O)c3ccnn3C)C3CCC(F)(F)CC3)nc2c1 [Example 116, N—((S)-(4,4-Difluorocyclohexyl)(5-((R)-1-(4,4,4-trifluoro-3-(trifluoromethyl)butanamido)ethyl)-1H-benzo[d]imidazol-2-yl)methyl)-1-methyl-1H-pyrazole-5-carboxamide] | 7.00 to 7.30 | > 7.30
21 | C[C@@H](NC(=O)CC(C)(C)C)c1ccc2[nH]c([C@@H](NC(=O)c3ccnn3C)C3CCC(F)(F)CC3)nc2c1 [Example 117, N—((S)-(4,4-Difluorocyclohexyl)(5-((R)-1-(3,3-dimethylbutanamido)ethyl)-1H-benzo[d]imidazol-2-yl)methyl)-1-methyl-1H-pyrazole-5-carboxamide] | < 7.00 | < 7.00
22 | C[C@@H](NC(=O)CC1CC(F)(F)C1)c1ccc2[nH]c([C@@H](NC(=O)c3ccnn3C)C3CCC(F)(F)CC3)nc2c1 [Example 119, N—((S)-(5-((R)-1-(2-(3,3-Difluorocyclobutyl)acetamido)ethyl)-1H-benzo[d]imidazol-2-yl)(4,4-difluorocyclohexyl)methyl)-1-methyl-1H-pyrazole-5-carboxamide] | < 7.00 | > 7.30
